Experiment: Average number of small diameter microparticles per colored resin particle (SEM count after polymerization)
Conditions: aqueous dispersion after polymerization process; SEM 5,000 magnification, 25 particles
Description: The average number of small diameter microparticles per colored resin particle is a value calculated in such a manner that aqueous dispersion containing colored resin particles after polymerization process is collected and prepared to be a sample for measurement with a scanning electron microscopy (SEM); the prepared sample is photographed at 5,000 magnification in five fields of view by means of the scanning electron microscopy; five colored resin particles are randomly selected in each image; the number of small diameter microparticles observed on the surface of 25 colored resin particles in total is counted; and the average number of small microparticles per colored resin is calculated therefrom.
The number of small diameter microparticles per colored resin particle can be measured by means of a commercially available scanning electron microscopy. For example, it can be measured by means of a field emission scanning electron microscopy (product name: S-4700; manufactured by: Hitachi, Ltd.). […]
The sample was randomly photographed in five fields of view, and five colored resin particles were randomly selected in each image to count the number of small diameter microparticles observed on the surface of 25 colored resin particles in total. The average number of small diameter microparticles per colored resin particle was calculated therefrom.

Oc1ccc(O)cc1 [A, Hydroquinone]
Average number of small diameter microparticles per colored resin particle: weak
